The record followed here is ChEMBL document CHEMBL3507680, “University of Dundee, Gates Library screen for HepG2 cell viability”.

The data set is described as follows: Human HepG2 cell viability assay in 384 well format. The format is toxicity, cell-based. Particulars: HepG2 cells, read-out: Inhibition. The arrangement: dose 125 nL, time 70.5 hour; cytotoxicity at 70.5 h: concentration not given beside the values.
In the case of `CC(NC(=O)CCCc1ccc(Cl)cc1)c1n[nH]c(=O)[nH]1` (configuration not stated), the cytotoxicity at 70.5 h was -0.585%. For `CCOC(C)c1nc(Cn2cc(C)cn2)cs1` (configuration not stated), the cytotoxicity at 70.5 h was 9.54%. To `CC(Cn1cccn1)NCc1nc(-c2ccco2)no1` (configuration not stated) belongs -16.5%; to `O=C(NCCC(=O)N1CCCC1)c1cccnc1`, 17.4%; to `CC(C)=CCN1CCN(C(C)c2cccnc2)CC1` (configuration not stated), -1.42%.

`Cc1ncc(CN2CCOC(CNc3cccnn3)C2)s1` (configuration not stated): the cytotoxicity at 70.5 h is 2.68%. With `COc1ncc(NS(=O)(=O)c2ccc(F)cc2F)cn1` the figure was -3.22%. As to `Cc1cc(CS(=O)(=O)N(C)C(C)c2ccc(F)cc2)on1` (configuration not stated), the cytotoxicity at 70.5 h is -7.52%. In the case of `CC(C)(O)CN1CCN(C(=O)C2CSc3ccccc3O2)CC1` (configuration not stated), the cytotoxicity at 70.5 h is -14.7%. With `CCC[C@@H]1CN(C(=O)c2ccccc2-c2ncc[nH]2)C[C@H]1N(C)C` the figure was -2.55%; with `O=C(NCc1nnc2n1CCCC2)N1CCc2ccccc2C1`, -2.97%; with `O=C(NCCOc1ccc(Cl)cn1)Nc1ccccn1`, 0.428%. With `O=C1c2cnc(N3CCOCC3)nc2CN1C1CCS(=O)(=O)C1` (configuration not stated) the figure was 5.93%. Consider `Cc1noc2nc(C3CCCN(Cc4ccncc4)C3)cc(C(F)F)c12` (configuration not stated), for which the cytotoxicity at 70.5 h is -3.5%. `Clc1cc(Cl)cc(OCCN2CCC(n3cncn3)CC2)c1`: the cytotoxicity at 70.5 h is -0.108%.

With `CSCC[C@@H](CO)n1ccnc1-c1ccncc1`, the cytotoxicity at 70.5 h is -10.3%. As to `COc1cccc(N2CCN(C(=O)C(O)c3cccc(Cl)c3)CC2=O)c1` (configuration not stated), the cytotoxicity at 70.5 h stood at 6.54%. For `Cc1nc(C2CN(Cc3ccccc3C)CCO2)no1` (configuration not stated), the cytotoxicity at 70.5 h was -11%. For `CNc1cncc(C2CCCN2Cc2ccn(C)n2)n1` (configuration not stated), the cytotoxicity at 70.5 h was -1.7%. With `O=C(c1ccc[nH]1)N1CCC2(CC1)C(=O)Nc1ccccc12` the figure was -14.9%. To `O=C(NCC1CC1)Nc1cnc2ccc(F)cc2c1O` belongs -3.07%; to `O=C(NCc1ccccc1CN1CCC(O)CC1)Nc1ccccn1`, -3.22%; to `CC(C)Cc1nc(OCC(=O)O)c(C#N)c2c1CCC2`, 3.53%. Take `Cc1csc(N2CCN(CC(=O)NCc3ccccn3)CC2C)n1` (configuration not stated): the cytotoxicity at 70.5 h was -13.9%.

On to `Cc1cc(C)n(C2CN(CC(=O)NC(C3CC3)C3CC3)C2)n1`, for which the cytotoxicity at 70.5 h was -3.88%. To `CCc1cnc(CN(C(C)=O)C2CCN(CCc3ccccc3)C2)o1` (configuration not stated) belongs 18.3%; to `COc1ccc(CC(=O)N2CC(=O)NCC(C)(C)C2)cc1`, 14.8%; to `COc1ccc(CNCc2c(C)nn(C)c2N2CCOCC2)cc1`, -3.63%. Consider `Cn1cc(CC(CNC(=O)Nc2cccc(Cl)c2)C(N)=O)cn1` (configuration not stated), for which the cytotoxicity at 70.5 h is -6.01%. Consider `O=C(CN1CCCC1)N1CCCC(c2cc(=O)n3c(n2)CCCCC3)C1` (configuration not stated), for which the cytotoxicity at 70.5 h was determined as 2.75%. Regarding `O=S(=O)(c1ccccc1F)N1CCC(Oc2cccnn2)CC1`, the cytotoxicity at 70.5 h is -7.73%. With `CCc1n[nH]c(=O)c(C(=O)N2CCOC3(CCCC3)C2)c1CC` the figure was -2.62%; with `Cc1nn(C(C)C)c2cnn(CC(=O)N3CCN(C)CC3)c12`, -8.52%. For `O=C(c1ccc(Br)cc1F)N1CCc2ccncc21`, the cytotoxicity at 70.5 h came to 3.99%.

For the compound `CN(C)C(=O)N1CCOCC2(CCN(c3ccccn3)C2)C1` (configuration not stated), the cytotoxicity at 70.5 h is -5.46%. With `O=C1CCc2cc(OCCN3CCc4cncnc4C3)ccc2N1`, the cytotoxicity at 70.5 h was -3.56%. For `Cc1ncc(-c2ccncc2)c(C2CCN(C(=O)c3ccno3)CC2)n1`, the cytotoxicity at 70.5 h was -7.69%. As for `O=C(NCc1nnc2n1CCC2)c1cn(-c2ccccc2Br)nn1`, the cytotoxicity at 70.5 h is -2.93%. With `CCSc1ncc(CN2C[C@H]3CC[C@@H]2CN(C2CCOCC2)C3)cn1` the figure was -7.51%. Regarding `CC(NC(=O)N(C)Cc1cnn(C)c1)c1nncn1C` (configuration not stated), the cytotoxicity at 70.5 h was -2.09%. With `CCCOc1ccc(CN)c(OC(F)F)c1` the figure was -3.13%; with `COc1ccc2c(C)c(C(=O)N3CCC(NC(C)=O)C3)oc2c1` (configuration not stated), -3.36%. With `c1ccc(C(NCc2nnc(-c3ccco3)o2)C2CCC2)cc1` (configuration not stated), the cytotoxicity at 70.5 h was -14.7%. Regarding `CN(C)Cc1nc2c(o1)CN(S(=O)(=O)c1cccs1)C2`, the cytotoxicity at 70.5 h is -9.46%. With `CCS(=O)(=O)N1C[C@@H](c2ccccc2)[C@@]2(CCNC2=O)C1` the figure was -4.06%.

For `CN(CCn1cnc(-c2ccccc2)c1-c1ncc[nH]1)S(C)(=O)=O`, the cytotoxicity at 70.5 h came out at 7.51%. As to `CCn1cc(CN2CCCN(C(=O)c3ccco3)CC2)cn1`, the cytotoxicity at 70.5 h was -6.43%. With `Cc1ccc(CNC(=O)C2CCN(C(=O)c3ccco3)CC2)n1C` the figure was 20.7%; with `CN(Cc1ccoc1)c1ccc(-c2nccn2C)nn1`, 26.2%. Take `CCN1CCOCC2(CCCN(C(=O)c3ccccc3F)C2)C1` (configuration not stated): the cytotoxicity at 70.5 h is 8.58%. Regarding `COc1ccc(Br)c(C(=O)NCC2CC2)c1`, the cytotoxicity at 70.5 h worked out at 18.2%. To `CCCC(=O)NC1CCCN(C(=O)c2ccc(C)nc2)C1` (configuration not stated) belongs 14.6%; to `Cc1nnsc1CN(C)C(=O)CCn1cnc2ccccc21`, -9.98%; to `CC(OCC1CC1)C(=O)N1CCCN(c2cccnn2)CC1` (configuration not stated), -5.5%. Regarding `CCc1nc(CNC(C)Cn2cccn2)cs1` (configuration not stated), the cytotoxicity at 70.5 h is -11.9%.

In the case of `Fc1cnccc1CN1CCCC2(CCN(c3ncccn3)CC2)C1`, the cytotoxicity at 70.5 h is -5.15%. With `CCN(CC)c1ccc(C(=O)N(C)Cc2c(C)noc2C)cn1` the figure was -3.66%. To `CNc1cc(C2CN(C(=O)c3cscn3)CCO2)nc(C)n1` (configuration not stated) belongs 26%; to `O=C(CCNc1ncccn1)NCCc1ccn(-c2ccccc2)n1`, 22%; to `CCO[C@@H]1CO[C@@]2(CCCN(C(=O)c3ccc(OC)c(F)c3)C2)C1`, 9.35%. For `Cc1ccc(OCC(O)Cn2ncc3cnn(C)c(=O)c32)cc1` (configuration not stated), the cytotoxicity at 70.5 h is -6.88%. For `Cc1cn2c(n1)CCC(NC(=O)c1[nH]nc(C)c1Br)C2` (configuration not stated), the cytotoxicity at 70.5 h is 13.2%. With `Cc1nn(C)c(C)c1NC(=O)c1cccc(CN2C[C@H]3CC[C@@H](C2)N3)c1` the figure was -13.8%; with `CCN(CC)C(=O)c1ccn(COc2ccc(F)cc2F)n1`, -7.67%; with `Cc1ccccc1CC(=O)N1C[C@@H]2COC[C@]2(CN(C)C)C1`, -6.68%. To `CN1CCN(C(=O)c2cc(NC(=O)c3ccccc3)n(C)n2)CC1` belongs -12.7%; to `COc1ccc(CC(=O)N2CCc3nc(C(=O)N(C)C)sc3CC2)cc1`, -4%.

On to `CS(=O)(=O)N1C[C@H]2CNC[C@@]2(C(=O)NCCOc2ccccc2)C1`, for which the cytotoxicity at 70.5 h is -1.07%.

Take `CCCNC(=O)CN1CCC(NCc2csc(C(C)C)n2)CC1`: the cytotoxicity at 70.5 h is -11.5%.

Consider `Cc1nc(CO[C@@H]2CC[C@H]3[C@H]2OCCN3Cc2cccnc2)cs1`, for which the cytotoxicity at 70.5 h was 14.5%. On to `CN(C)C(=O)N1CCN(Cc2nc3ccccc3[nH]2)[C@H]2CS(=O)(=O)C[C@H]21`, for which the cytotoxicity at 70.5 h came out at 25%.

Consider `CC(O)CNc1nc(-c2cccnc2)nc2c1CCC2` (configuration not stated), for which the cytotoxicity at 70.5 h stood at 0.874%.
